From PubChem BioAssay AID192 (DTP/NCI, 2004)
Where “and” joins values, the source holds several entries; their conditions need not be identical. Identical values can stand only once. Inconclusive results and toxic doses are left out.

System: BDF1 mice, B16 melanoma ip, median survival T/C
Test: NCI In Vivo Anticancer Drug Screen. Data for tumor model B16 Melanoma (intraperitoneal) in B6D2F1 (BDF1) mice
Settings: endpoint: median survival time, higher = longer survival
Procedure, shortened: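 In this screen, activity was judged from survival or tumor size in treated versus vehicle-treated tumor-bearing mice, reported as T/C.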

[1] = dose: 0.25 mg/kg/injection, schedule: Q01DX009 (ip), vehicle: saline

## N[C@@H](Cc1ccc(N(CCCl)CCCl)cc1)C(=O)O
dose: 0.06 mg/kg/injection, schedule: Q01DX009 (ip), vehicle: saline
  T/C: 97 % of control
dose: 0.12 mg/kg/injection, schedule: Q01DX009 (ip), vehicle: saline
  T/C: 102 % of control
[1]
  T/C: 104 % of control
dose: 0.5 mg/kg/injection, schedule: Q01DX009 (ip), vehicle: carboxymethylcellulose (CMC)
  T/C: 95 % of control
dose: 0.5 mg/kg/injection, schedule: Q01DX009 (ip), vehicle: water
  T/C: 123 % of control
dose: 0.75 mg/kg/injection, schedule: Q01DX009 (ip), vehicle: Klucel (hydroxypropylcellulose) (HPC)
  T/C: 151 % of control
dose: 0.75 mg/kg/injection, schedule: Q01DX009 (ip), vehicle: saline
  T/C: 157 % of control
dose: 1.0 mg/kg/injection, schedule: Q01DX009 (ip), vehicle: carboxymethylcellulose (CMC)
  T/C: 88 % of control
dose: 1.0 mg/kg/injection, schedule: Q01DX009 (ip), vehicle: saline with Tween-80
  T/C: 180 % of control
dose: 1.0 mg/kg/injection, schedule: Q01DX009 (ip), vehicle: water
  T/C: 176 % of control
dose: 1.2 mg/kg/injection, schedule: Q01DX009 (ip), vehicle: saline
  T/C: 167 % of control
dose: 1.25 mg/kg/injection, schedule: Q01DX001 (ip), vehicle: water
  T/C: 123 % of control
dose: 1.5 mg/kg/injection, schedule: Q01DX009 (ip), vehicle: Klucel (hydroxypropylcellulose) (HPC)
  T/C: 188 % of control
dose: 1.5 mg/kg/injection, schedule: Q01DX009 (ip), vehicle: carboxymethylcellulose (CMC)
  T/C: 180 % of control
dose: 1.5 mg/kg/injection, schedule: Q01DX009 (ip), vehicle: saline
  T/C: 166 % of control and 197 % of control
dose: 2.0 mg/kg/injection, schedule: Q01DX009 (ip), vehicle: carboxymethylcellulose (CMC)
  T/C: 95 % of control
dose: 2.0 mg/kg/injection, schedule: Q01DX009 (ip), vehicle: saline with Tween-80
  T/C: 254 % of control
dose: 2.0 mg/kg/injection, schedule: Q01DX009 (ip), vehicle: water
  T/C: 188 % of control
dose: 2.5 mg/kg/injection, schedule: Q01DX001 (ip), vehicle: Klucel (hydroxypropylcellulose) (HPC)
  T/C: 164 % of control
dose: 3.0 mg/kg/injection, schedule: Q01DX009 (ip), vehicle: Klucel (hydroxypropylcellulose) (HPC)
  T/C: 198 % of control
dose: 3.0 mg/kg/injection, schedule: Q01DX009 (ip), vehicle: saline
  T/C: 171 % of control and 262 % of control
dose: 3.3 mg/kg/injection, schedule: Q01DX009 (ip), vehicle: saline
  T/C: 218 % of control
dose: 4.0 mg/kg/injection, schedule: Q01DX009 (ip), vehicle: carboxymethylcellulose (CMC)
  T/C: 94 % of control
dose: 4.0 mg/kg/injection, schedule: Q01DX009 (ip), vehicle: saline with Tween-80
  T/C: 200 % of control
dose: 4.0 mg/kg/injection, schedule: Q01DX009 (ip), vehicle: water
  T/C: 161 % of control
dose: 4.0 mg/kg/injection, schedule: Q04DX003 (ip), vehicle: saline
  T/C: 194 % of control
dose: 5.0 mg/kg/injection, schedule: Q01DX001 (ip), vehicle: Klucel (hydroxypropylcellulose) (HPC)
  T/C: 222 % of control
dose: 5.0 mg/kg/injection, schedule: Q01DX005 (ip), vehicle: saline
  T/C: 156 % of control
dose: 6.0 mg/kg/injection, schedule: Q01DX009 (ip), vehicle: carboxymethylcellulose (CMC)
  T/C: 106 % of control and 117 % of control
dose: 6.0 mg/kg/injection, schedule: Q01DX009 (ip), vehicle: saline
  T/C: 118 % of control
dose: 6.0 mg/kg/injection, schedule: Q04DX003 (ip), vehicle: Klucel (hydroxypropylcellulose) (HPC)
  T/C: 179 % of control
dose: 8.0 mg/kg/injection, schedule: Q04DX003 (ip), vehicle: saline
  T/C: 231 % of control
dose: 10.0 mg/kg/injection, schedule: Q01DX001 (ip), vehicle: Klucel (hydroxypropylcellulose) (HPC)
  T/C: 242 % of control
dose: 10.0 mg/kg/injection, schedule: Q01DX001 (ip), vehicle: water
  T/C: 191 % of control
dose: 10.0 mg/kg/injection, schedule: Q01DX005 (ip), vehicle: saline
  T/C: 194 % of control
dose: 12.0 mg/kg/injection, schedule: Q04DX003 (ip), vehicle: Klucel (hydroxypropylcellulose) (HPC)
  T/C: 169 % of control
dose: 16.0 mg/kg/injection, schedule: Q04DX003 (ip), vehicle: saline
  T/C: 169 % of control

## Cc1ccc(C)c(CCN)c1
dose: 12.5 mg/kg/injection, schedule: Q01DX009 (ip), vehicle: saline with Tween-80
  T/C: 104 % of control
dose: 25.0 mg/kg/injection, schedule: Q01DX009 (ip), vehicle: saline with Tween-80
  T/C: 97 % of control

## Clc1ccc2c3c(cccc13)CC2
dose: 5.0 mg/kg/injection, schedule: Q01DX009 (ip), vehicle: saline with Tween-80
  T/C: 87 % of control
dose: 10.0 mg/kg/injection, schedule: Q01DX009 (ip), vehicle: saline with Tween-80
  T/C: 92 % of control
dose: 20.0 mg/kg/injection, schedule: Q01DX009 (ip), vehicle: saline with Tween-80
  T/C: 87 % of control
dose: 40.0 mg/kg/injection, schedule: Q01DX009 (ip), vehicle: saline with Tween-80
  T/C: 87 % of control

## CO[C@@]12[C@H](COC(N)=O)C3=C(C(=O)C(C)=C(N)C3=O)N1C[C@@H]1N[C@@H]12
dose: 0.06 mg/kg/injection, schedule: Q01DX009 (ip), vehicle: Klucel (hydroxypropylcellulose) (HPC)
  T/C: 113 % of control
dose: 0.1 mg/kg/injection, schedule: Q04DX003 (ip), vehicle: saline
  T/C: 99 % of control
dose: 0.13 mg/kg/injection, schedule: Q01DX001 (ip), vehicle: clinical formulation
  T/C: 105 % of control
dose: 0.13 mg/kg/injection, schedule: Q01DX009 (ip), vehicle: Klucel (hydroxypropylcellulose) (HPC)
  T/C: 114 % of control
dose: 0.13 mg/kg/injection, schedule: Q01DX009 (ip), vehicle: saline
  T/C: 117 % of control
dose: 0.2 mg/kg/injection, schedule: Q04DX003 (ip), vehicle: saline
  T/C: 113 % of control
dose: 0.22 mg/kg/injection, schedule: Q01DX009 (ip), vehicle: saline
  T/C: 103 % of control
dose: 0.25 mg/kg/injection, schedule: Q01DX001 (ip), vehicle: clinical formulation
  T/C: 114 % of control
dose: 0.25 mg/kg/injection, schedule: Q01DX009 (ip), vehicle: Klucel (hydroxypropylcellulose) (HPC)
  T/C: 110 % of control
[1]
  T/C: 103 % of control
dose: 0.36 mg/kg/injection, schedule: Q01DX009 (ip), vehicle: saline
  T/C: 117 % of control
dose: 0.5 mg/kg/injection, schedule: Q01DX001 (ip), vehicle: clinical formulation
  T/C: 123 % of control
dose: 0.5 mg/kg/injection, schedule: Q01DX009 (ip), vehicle: Klucel (hydroxypropylcellulose) (HPC)
  T/C: 113 % of control
dose: 0.5 mg/kg/injection, schedule: Q01DX009 (ip), vehicle: saline
  T/C: 159 % of control
dose: 0.54 mg/kg/injection, schedule: Q01DX009 (ip), vehicle: saline
  T/C: 154 % of control and 217 % of control
dose: 0.54 mg/kg/injection, schedule: Q01DX010 (ip), vehicle: saline
  T/C: 114 % of control
dose: 0.6 mg/kg/injection, schedule: Q01DX009 (ip), vehicle: saline
  T/C: 151 % of control
dose: 0.9 mg/kg/injection, schedule: Q01DX010 (ip), vehicle: saline
  T/C: 107 % of control
dose: 1.0 mg/kg/injection, schedule: Q01DX007 (ip), vehicle: saline
  T/C: 152 % of control
dose: 1.0 mg/kg/injection, schedule: Q01DX009 (ip), vehicle: Klucel (hydroxypropylcellulose) (HPC)
  T/C: 181 % of control and 189 % of control
dose: 1.0 mg/kg/injection, schedule: Q01DX009 (ip), vehicle: saline sonified
  T/C: 169 % of control
dose: 1.0 mg/kg/injection, schedule: Q04DX003 (ip), vehicle: clinical formulation
  T/C: 159 % of control
dose: 1.5 mg/kg/injection, schedule: Q01DX010 (ip), vehicle: saline
  T/C: 101 % of control
dose: 1.5 mg/kg/injection, schedule: Q04DX003 (ip), vehicle: clinical formulation
  T/C: 151 % of control
dose: 1.5 mg/kg/injection, schedule: Q04DX003 (ip), vehicle: saline
  T/C: 164 % of control
dose: 1.6 mg/kg/injection, schedule: Q04DX003 (ip), vehicle: saline
  T/C: 172 % of control
dose: 1.67 mg/kg/injection, schedule: Q01DX009 (ip), vehicle: saline
  T/C: 151 % of control
dose: 2.0 mg/kg/injection, schedule: Q01DX001 (ip), vehicle: clinical formulation
  T/C: 153 % of control
dose: 2.0 mg/kg/injection, schedule: Q04DX003 (ip), vehicle: clinical formulation
  T/C: 236 % of control
dose: 2.5 mg/kg/injection, schedule: Q01DX009 (ip), vehicle: saline
  T/C: 34 % of control and 57 % of control
dose: 2.5 mg/kg/injection, schedule: Q01DX010 (ip), vehicle: saline
  T/C: 105 % of control
dose: 3.0 mg/kg/injection, schedule: Q04DX003 (ip), vehicle: clinical formulation
  T/C: 260 % of control
dose: 3.0 mg/kg/injection, schedule: Q04DX003 (ip), vehicle: saline
  T/C: 193 % of control
dose: 3.2 mg/kg/injection, schedule: Q04DX003 (ip), vehicle: saline
  T/C: 231 % of control
dose: 4.0 mg/kg/injection, schedule: Q01DX007 (ip), vehicle: saline
  T/C: 57 % of control

## CCOC(=O)C(C)Oc1ccc(Cl)cc1 (configuration not stated)
dose: 50.0 mg/kg/injection, schedule: Q01DX009 (ip), vehicle: other
  T/C: 111 % of control
dose: 100.0 mg/kg/injection, schedule: Q01DX009 (ip), vehicle: other
  T/C: 104 % of control
dose: 200.0 mg/kg/injection, schedule: Q01DX009 (ip), vehicle: other
  T/C: 106 % of control
dose: 400.0 mg/kg/injection, schedule: Q01DX009 (ip), vehicle: other
  T/C: 102 % of control
